Source: BindingDB's records for doi:10.1016/0960-894X(94)85036-4 (1994)

Target: Type-1 angiotensin II receptor (Rattus norvegicus)
Test: […] inhibitory concentration against Angiotensin II receptor, type 1 of rat adrenal membrane

Compound `CCCCOC(=O)NS(=O)(=O)c1ccccc1-c1ccc(Cn2c(CCCC)nc3ccc(NC(=O)N(C)C(C)C)cc3c2=O)cc1` [2-Butyl-3-(2'-(butyloxycarbonylaminosulphonyl)-biphenyl-4-ylmethyl)-6-(N-isopropyl-N-methyl-aminocarbonylamino)-3H-quinazolin-4-one] has an IC50 of 4 nM.
